Test results published in the supplement of paper PMC10307832.

Key:
Assay in all cases: relative viability (nuclei count vs DMSO), 5 days (fraction); higher = more cells survive
201T = test system: 201T
In short: (§1)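 Relative viability is defined as nuclei in treated wells over nuclei in vehicle wells. Duplicate plates were run and medians reported. Lung cancer cell lines in 1536-well plates were dosed by pin tool one day after seeding, with one drug or with a fixed anchor-drug dose plus five library-drug doses (not always all listed) in √10 steps, and nuclei were counted after 5 days.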

COR-L 105 = test system: COR-L 105
In short: as §1

ChaGo-K-1 = test system: ChaGo-K-1
In short: as §1

EKVX = test system: EKVX
In short: as §1

H3255 = test system: H3255
In short: as §1

HARA = test system: HARA
In short: as §1

HCC-827 = test system: HCC-827
In short: as §1

HOP-62 = test system: HOP-62
In short: as §1

LCLC-103H = test system: LCLC-103H
In short: as §1

LOU-NH91 = test system: LOU-NH91
In short: as §1

NCI-H1975 = test system: NCI-H1975
In short: as §1

NCI-H2126 = test system: NCI-H2126
In short: as §1

NCI-H2228 = test system: NCI-H2228
In short: as §1

NCI-H23 = test system: NCI-H23
In short: as §1

NCI-H2405 = test system: NCI-H2405
In short: as §1

NCI-H3122 = test system: NCI-H3122
In short: as §1

NCI-H596 = test system: NCI-H596
In short: as §1

NCI-H650 = test system: NCI-H650
In short: as §1

NCI-H661 = test system: NCI-H661
In short: as §1

NCI-H727 = test system: NCI-H727
In short: as §1

PC-3 [JPC-3] = test system: PC-3 [JPC-3]
In short: as §1

SK-LU-1 = test system: SK-LU-1
In short: as §1

SW 900 = test system: SW 900
In short: as §1

For CCNC(=O)c1noc(-c2cc(C(C)C)c(O)cc2O)c1-c1ccc(CN2CCOCC2)cc1 [Luminespib] + Cc1nc(Nc2ncc(C(=O)Nc3c(C)cccc3Cl)s2)cc(N2CCN(CCO)CC2)n1 [Dasatinib] (partner 0.075 µM), the relative viability (201T; first compound 0.002 µM) was 0.524, the relative viability (201T; first compound 0.006325 µM) was 0.614 and the relative viability (201T; first compound 0.02 µM) was 0.506. The relative viability (201T; first compound 0.06325 µM) was 0.569, the relative viability (201T; first compound 0.2 µM) was 0.237 and the relative viability (COR-L 105; first compound 0.002 µM) was 0.344. For the same compound, the relative viability (COR-L 105; first compound 0.006325 µM) was 0.322, the relative viability (COR-L 105; first compound 0.02 µM) was 0.248 and the relative viability (COR-L 105; first compound 0.06325 µM) was 0.157. For the same compound, the relative viability (COR-L 105; first compound 0.2 µM) was 0.145, the relative viability (ChaGo-K-1; first compound 0.002 µM) was 0.634 and the relative viability (ChaGo-K-1; first compound 0.006325 µM) was 0.648. The relative viability (ChaGo-K-1; first compound 0.02 µM) was 0.539, the relative viability (ChaGo-K-1; first compound 0.06325 µM) was 0.376 and the relative viability (ChaGo-K-1; first compound 0.2 µM) was 0.143. For the same compound, the relative viability (EKVX; first compound 0.002 µM) was 0.311, the relative viability (EKVX; first compound 0.006325 µM) was 0.509 and the relative viability (EKVX; first compound 0.02 µM) was 0.403. For the same compound, the relative viability (EKVX; first compound 0.06325 µM) was 0.515, the relative viability (EKVX; first compound 0.2 µM) was 0.393 and the relative viability (H3255; first compound 0.002 µM) was 0.375. It also gave a relative viability (H3255; first compound 0.006325 µM) of 0.311, a relative viability (H3255; first compound 0.06325 µM) of 0.406 and a relative viability (H3255; first compound 0.2 µM) of 0.197. It also gave a relative viability (HARA; first compound 0.002 µM) of 0.224, a relative viability (HARA; first compound 0.006325 µM) of 0.279 and a relative viability (HARA; first compound 0.02 µM) of 0.205. The relative viability (HARA; first compound 0.06325 µM) was 0.0633, the relative viability (HARA; first compound 0.2 µM) was 0.0774 and the relative viability (HCC-827; first compound 0.002 µM) was 0.217. For the same compound, the relative viability (HCC-827; first compound 0.006325 µM) was 0.262, the relative viability (HCC-827; first compound 0.02 µM) was 0.219 and the relative viability (HCC-827; first compound 0.06325 µM) was 0.259. For the same compound, the relative viability (HCC-827; first compound 0.2 µM) was 0.117, the relative viability (HOP-62; first compound 0.002 µM) was 0.734 and the relative viability (HOP-62; first compound 0.006325 µM) was 0.611. For the same compound, the relative viability (HOP-62; first compound 0.02 µM) was 0.603, the relative viability (HOP-62; first compound 0.06325 µM) was 0.408 and the relative viability (HOP-62; first compound 0.2 µM) was 0.102. For the same compound, the relative viability (LCLC-103H; first compound 0.002 µM) was 0.493, the relative viability (LCLC-103H; first compound 0.006325 µM) was 0.491 and the relative viability (LCLC-103H; first compound 0.02 µM) was 0.41. It also gave a relative viability (LCLC-103H; first compound 0.06325 µM) of 0.536, a relative viability (LCLC-103H; first compound 0.2 µM) of 0.529 and a relative viability (LOU-NH91; first compound 0.002 µM) of 0.517. The relative viability (LOU-NH91; first compound 0.006325 µM) was 0.543, the relative viability (LOU-NH91; first compound 0.02 µM) was 0.388 and the relative viability (LOU-NH91; first compound 0.06325 µM) was 0.258. It also gave a relative viability (LOU-NH91; first compound 0.2 µM) of 0.29, a relative viability (NCI-H1975; first compound 0.002 µM) of 0.382 and a relative viability (NCI-H1975; first compound 0.006325 µM) of 0.347. For the same compound, the relative viability (NCI-H1975; first compound 0.02 µM) was 0.14, the relative viability (NCI-H1975; first compound 0.06325 µM) was 0.093 and the relative viability (NCI-H1975; first compound 0.2 µM) was 0.0892. The relative viability (NCI-H2126; first compound 0.002 µM) was 0.631, the relative viability (NCI-H2126; first compound 0.006325 µM) was 0.606 and the relative viability (NCI-H2126; first compound 0.02 µM) was 0.399. The relative viability (NCI-H2126; first compound 0.06325 µM) was 0.206, the relative viability (NCI-H2126; first compound 0.2 µM) was 0.221 and the relative viability (NCI-H2228; first compound 0.002 µM) was 0.423. The relative viability (NCI-H2228; first compound 0.006325 µM) was 0.387, the relative viability (NCI-H2228; first compound 0.02 µM) was 0.103 and the relative viability (NCI-H2228; first compound 0.06325 µM) was 0.096. The relative viability (NCI-H2228; first compound 0.2 µM) was 0.101, the relative viability (NCI-H23; first compound 0.002 µM) was 0.839 and the relative viability (NCI-H23; first compound 0.006325 µM) was 0.765. The relative viability (NCI-H23; first compound 0.02 µM) was 0.517, the relative viability (NCI-H23; first compound 0.06325 µM) was 0.118 and the relative viability (NCI-H23; first compound 0.2 µM) was 0.13. The relative viability (NCI-H2405; first compound 0.002 µM) was 0.226, the relative viability (NCI-H2405; first compound 0.006325 µM) was 0.182 and the relative viability (NCI-H2405; first compound 0.02 µM) was 0.178. The relative viability (NCI-H2405; first compound 0.06325 µM) was 0.164, the relative viability (NCI-H2405; first compound 0.2 µM) was 0.138 and the relative viability (NCI-H3122; first compound 0.002 µM) was 0.83. The relative viability (NCI-H3122; first compound 0.006325 µM) was 0.812, the relative viability (NCI-H3122; first compound 0.02 µM) was 0.0669 and the relative viability (NCI-H3122; first compound 0.06325 µM) was 0.0573. For the same compound, the relative viability (NCI-H3122; first compound 0.2 µM) was 0.0548, the relative viability (NCI-H596; first compound 0.002 µM) was 0.529 and the relative viability (NCI-H596; first compound 0.006325 µM) was 0.614. The relative viability (NCI-H596; first compound 0.02 µM) was 0.426, the relative viability (NCI-H596; first compound 0.06325 µM) was 0.479 and the relative viability (NCI-H596; first compound 0.2 µM) was 0.511. The relative viability (NCI-H650; first compound 0.002 µM) was 0.468, the relative viability (NCI-H650; first compound 0.006325 µM) was 0.417 and the relative viability (NCI-H650; first compound 0.02 µM) was 0.359. It also gave a relative viability (NCI-H650; first compound 0.06325 µM) of 0.112, a relative viability (NCI-H650; first compound 0.2 µM) of 0.115 and a relative viability (NCI-H661; first compound 0.002 µM) of 0.891. It also gave a relative viability (NCI-H661; first compound 0.006325 µM) of 0.954, a relative viability (NCI-H661; first compound 0.02 µM) of 0.662 and a relative viability (NCI-H661; first compound 0.06325 µM) of 0.286. It also gave a relative viability (NCI-H661; first compound 0.2 µM) of 0.233, a relative viability (NCI-H727; first compound 0.002 µM) of 0.358 and a relative viability (NCI-H727; first compound 0.006325 µM) of 0.331. The relative viability (NCI-H727; first compound 0.02 µM) was 0.257, the relative viability (NCI-H727; first compound 0.06325 µM) was 0.278 and the relative viability (NCI-H727; first compound 0.2 µM) was 0.304. It also gave a relative viability (PC-3 [JPC-3]; first compound 0.002 µM) of 0.99, a relative viability (PC-3 [JPC-3]; first compound 0.006325 µM) of 0.945 and a relative viability (PC-3 [JPC-3]; first compound 0.02 µM) of 0.829. The relative viability (PC-3 [JPC-3]; first compound 0.06325 µM) was 0.863, the relative viability (PC-3 [JPC-3]; first compound 0.2 µM) was 0.25 and the relative viability (SK-LU-1; first compound 0.002 µM) was 0.194. The relative viability (SK-LU-1; first compound 0.006325 µM) was 0.167, the relative viability (SK-LU-1; first compound 0.02 µM) was 0.077 and the relative viability (SK-LU-1; first compound 0.06325 µM) was 0.049. For the same compound, the relative viability (SK-LU-1; first compound 0.2 µM) was 0.0612, the relative viability (SW 900; first compound 0.002 µM) was 0.741 and the relative viability (SW 900; first compound 0.006325 µM) was 0.722. It also gave a relative viability (SW 900; first compound 0.02 µM) of 0.227, a relative viability (SW 900; first compound 0.06325 µM) of 0.0874 and a relative viability (SW 900; first compound 0.2 µM) of 0.109.
